Data: patent US20260028354A1, “TETRAHYDRONAPHTHALENE DERIVATIVES AS ESTROGEN RECEPTOR DEGRADERS” (REGENT OF THE UNIVERSITY OF MICHIGAN, priority 2022, published 2026)
Structures can show the parent of a compound that is named as a salt.

Legend:
Type in all cases: cell-based
[1] = Western blot analysis for "B" compounds; settings: read-out: Traditional Western Degradation Potency (DC50)
Description: Western Blot Analysis. Western blot analysis was performed essentially as described previously. The cells treated with indicated compounds were lysed in Radioimmunoprecipitation Assay Protein Lysis and Extraction Buffer (25 mmol/I. Tris.HCl, pH 7.6, 150 mmol/L, NaCl, 1% Nonidet P-40, 1% sodium deoxycholate, and 0.1% sodium dodecyl sulfate) containing proteinase inhibitor cocktail (Roche Diagnostics, Mannheim, Germany). Equal amounts of total protein were electrophoresed through 10% SDS-polyacrylamide gels after determination of protein concentration by BCA assay (Fisher Scientific, Pittsburgh, PA), The separated protein bands were transferred onto PVDF membranes (GE Healthcare Life Sciences, Marlborough, MA) and blotted against different antibodies, as indicated. The blots were scanned, and the band intensities were quantified using GelQuant.NET software provided by biochemlabsolutions.com. The relative mean intensity of target proteins was expressed after normalization to the intensity of glyceraldehyde-3-phosphate dehydrogenase bands.

[2] = molecular target: ER in T47D cells (Homo sapiens (Human), UniProt P03372); test: In-cell Western (ICW) ER degradation assay in T47D cells; settings: for DC50: ER degradation; for Dmax: read-out: T47D Dmax, T47D, maximal ER degradation, 16 hrs treatment
Chain of ER in T47D cells (P03372 whole entry): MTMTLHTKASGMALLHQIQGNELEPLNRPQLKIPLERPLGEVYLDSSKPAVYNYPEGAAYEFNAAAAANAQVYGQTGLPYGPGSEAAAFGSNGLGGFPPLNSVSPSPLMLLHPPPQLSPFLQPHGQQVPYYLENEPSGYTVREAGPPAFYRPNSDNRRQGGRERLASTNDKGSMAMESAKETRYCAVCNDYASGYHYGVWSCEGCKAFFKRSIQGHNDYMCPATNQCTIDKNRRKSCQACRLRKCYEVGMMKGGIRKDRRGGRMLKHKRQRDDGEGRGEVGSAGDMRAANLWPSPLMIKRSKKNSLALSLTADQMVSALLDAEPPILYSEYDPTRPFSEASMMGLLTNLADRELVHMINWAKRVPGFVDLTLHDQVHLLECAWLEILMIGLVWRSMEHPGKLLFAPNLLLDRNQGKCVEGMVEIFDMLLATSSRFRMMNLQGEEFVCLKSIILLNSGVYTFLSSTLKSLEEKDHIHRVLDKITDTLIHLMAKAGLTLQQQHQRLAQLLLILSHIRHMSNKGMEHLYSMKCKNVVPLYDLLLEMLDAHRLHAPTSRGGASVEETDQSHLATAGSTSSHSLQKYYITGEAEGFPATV
From the text: (§1) In-cell Western (ICW) assays in MCF-7 and T47D cell lines.
(§2) Day 3: After 16 hrs of compounds treatment, cells were fixed by 4% PFA and permeabilized with elution buffer (0.1% Triton X-100 in 1% PBS Solution). Subsequently, cells were blocked with Intercept (PBS) Blocking Buffer (Li-COR, Odyssey Blocking Buffer), and were stained with ER (1:500, Cell signaling) primary antibody for overnight at cold room.
(§3) Day 4: Remove the buffer, add IRDye 800CW Goat anti-Rabbit IgG Secondary Antibody (1:2000) and CellTag 700 Stain (1:500) in Intercept (PBS) Blocking Buffer. Finally, cell plate is placed in incubator to dry. Image and signal were captured on Odyssey® DLx Imaging System.

[3] = molecular target: ER in MCF-7 cells (Homo sapiens (Human), UniProt P03372); test: In-cell Western (ICW) ER degradation assay in MCF-7 cells; settings: for DC50: MCF-7, ER degradation, read-out: MCF7 DC50; for Dmax: MCF7, read-out: MCF7 Dmax, MCF-7, maximal ER degradation, 16 hrs treatment
Chain of ER in MCF-7 cells (P03372 whole entry): as above
From the text: as §1, §2, §3

Compound: 2-(2,6-dioxopiperidin-3-yl)-6-(1-((1-(4-((1R,2S)-6-hydroxy-2- phenyl-1,2,3,4-tctrahydronaphthalcn-1-yl)phenyl)pipcridin-4- yl)methyl)piperidin-4-yl)-2,3,5,6-tetrahydropyrrolo[3,4- f]isoindole-1,7-dione [Compound B304]
- DC50 [1]: > 100 nM

Compound: 2-(2,6-dioxopiperidin-3-yl)-6-((1S,4s)-4-((3-((4-((1R,2S)-6- hydroxy-2-phenyl-1,2,3,4-tetrahydronaphthalen-1- yl)phenyl)amino)azetidin-1-yl)methyl)cyclohexane-1- carbonyl)-6,7-dihydropyrrolo[3,4-f]isoindole-1,3(2H,5H)- dionc [Compound B113]
- DC50 [1]: 10 to 100 nM

Compound: 3-(6-((1R,4r)-4-(3-((4-((1R,2S)-6-hydroxy-2-phenyl-1,2,3,4- tetrahydronaphthalen-1-yl)phenyl)amino)azetidin-1- yl)cyclohexane-1-carbonyl)-1-oxo-3,5,6,7- tetrahydropyrrolo[3,4-f]isoindol-2(1H)-yl)pipcridinc-2,6-dionc [Compound B109]
- DC50 [1]: < 10 nM

Compound: 3-(6-((1R,4r)-4-(3-((4-((1R,2S)-6-hydroxy-2-phenyl-1,2,3,4- tetrahydronaphthalen-1-yl)phenyl)amino)azetidin-1- yl)cyclohexane-1-carbonyl)-1-oxo-3,5,6,7- tetrahydropyrrolo[3,4-f]isoindol-2(1H)-yl)piperidine-2,6-dione [Compound B115]
- DC50 [1]: > 100 nM

Compound: 3-(6-((1S,4s)-4-(3-((4-((1R,2S)-6-hydroxy-2-phenyl-1,2,3,4- tetrahydronaphthalcn-1-yl)phenyl)amino)azctidin-1- yl)cyclohexane-1-carbonyl)-1-oxo-3,5,6,7- tetrahydropyrrolo[3,4-f]isoindol-2(1H)-yl)piperidine-2,6-dione [Compound B110]
- DC50 [1]: > 100 nM

Compound: 3-(6-((1S,4s)-4-(3-((4-((1R,2S)-6-hydroxy-2-phenyl-1,2,3,4- tetrahydronaphthalen-1-yl)phenyl)amino)azetidin-1- yl)cyclohexane-1-carbonyl)-1-oxo-3,5,6,7- tetrahydropyrrolo[3,4-f]isoindol-2(1H)-yl)piperidine-2,6-dione [Compound B116]
- DC50 [1]: > 100 nM

Compound: O=C1CCC(N2Cc3cc4c(cc3C2=O)CN(CC2CCN(c3ccc([C@@H]5c6ccc(O)cc6CC[C@@H]5c5ccccc5)cc3)CC2)C4)C(=O)N1 (mixture of isomers) [Compound B1, 3-(6-((1-(4-((1R,2S)-6-hydroxy-2-phenyl-1,2,3,4-tetrahydronaphthalen-1-yl)phenyl)piperidin-4-yl)methyl)-1-oxo-3,5,6,7-tetrahydropyrrolo[3,4-f]isoindol-2(1H)-yl)piperidine-2,6-dione]
- DC50 [1]: > 100 nM

Compound: O=C1CCC(N2C(=O)c3cc4c(cc3C2=O)CN(CC2CCN(c3ccc([C@@H]5c6ccc(O)cc6CC[C@@H]5c5ccccc5)cc3)CC2)C4)C(=O)N1 (mixture of isomers) [Compound B2, 2-(2,6-dioxopiperidin-3-yl)-6-((1-(4-((1R,2S)-6-hydroxy-2-phenyl-1,2,3,4-tetrahydronaphthalen-1-yl)phenyl)piperidin-4-yl)methyl)-6,7-dihydropyrrolo[3,4-f]isoindole-1,3(2H,5H)-dione]
- DC50 [1]: 10 to 100 nM

Compound: O=C1CCC(N2Cc3cc4c(cc3C2=O)CN(C2CCN(CC3CCN(c5ccc([C@@H]6c7ccc(O)cc7CC[C@@H]6c6ccccc6)cc5)CC3)CC2)C4)C(=O)N1 (mixture of isomers) [Compound B3, 3-(6-(1-((1-(4-((1R,2S)-6-hydroxy-2-phenyl-1,2,3,4-tetrahydronaphthalen-1-yl)phenyl)piperidin-4-yl)methyl)piperidin-4-yl)-1-oxo-3,5,6,7-tetrahydropyrrolo[3,4-f]isoindol-2(1H)-yl)piperidine-2,6-dione]
- DC50 [1]: < 10 nM

Compound: O=C1CCC(N2C(=O)c3cc4c(cc3C2=O)CN(CC(=O)N2CC3(C2)CN(c2ccc([C@@H]5c6ccc(O)cc6CC[C@@H]5c5ccccc5)cc2)C3)C4)C(=O)N1 (mixture of isomers) [Compound B4, 2-(2,6-dioxopiperidin-3-yl)-6-(2-(6-(4-((1R,2S)-6-hydroxy-2-phenyl-1,2,3,4-tetrahydronaphthalen-1-yl)phenyl)-2,6-diazaspiro[3.3]heptan-2-yl)-2-oxoethyl)-6,7-dihydropyrrolo[3,4-f]isoindole-1,3(2H,5H)-dione]
- DC50 [1]: 10 to 100 nM

Compound: O=C1CCC(N2C(=O)c3cc4c(cc3C2=O)CN(C(=O)C2CCN(C3CCN(c5ccc([C@@H]6c7ccc(O)cc7CC[C@@H]6c6ccc(F)cc6)cc5)CC3)CC2)C4)C(=O)N1 (mixture of isomers) [Compound B6, 2-(2,6-dioxopiperidin-3-yl)-6-(1′-(4-((1R,2S)-2-(4-fluorophenyl)-6-hydroxy-1,2,3,4-tetrahydronaphthalen-1-yl)phenyl)-[1,4'-bipiperidine]-4-carbonyl)-6,7-dihydropyrrolo[3,4-f]isoindole-1,3(2H,5H)-dione]
- DC50 [1]: < 10 nM

Compound: O=C1CCC(N2C(=O)c3cc4c(cc3C2=O)CN(CC2CCN(C(=O)C3CCN(c5ccc([C@@H]6c7ccc(O)cc7CC[C@@H]6c6ccccc6)cc5)CC3)CC2)C4)C(=O)N1 (mixture of isomers) [Compound B8, 2-(2,6-dioxopiperidin-3-yl)-6-((1-(1-(4-((1R,2S)-6-hydroxy-2-phenyl-1,2,3,4-tetrahydronaphthalen-1-yl)phenyl)piperidine-4-carbonyl)piperidin-4-yl)methyl)-6,7-dihydropyrrolo[3,4-f]isoindole-1,3(2H,5H)-dione]
- DC50 [1]: 10 to 100 nM

Compound: O=C1CCC(N2C(=O)c3cc4c(cc3C2=O)CN(C2CN(C(=O)C3CCN(c5ccc([C@@H]6c7ccc(O)cc7CC[C@@H]6c6ccccc6)cc5)CC3)C2)C4)C(=O)N1 (mixture of isomers) [Compound B9, 2-(2,6-dioxopiperidin-3-yl)-6-(1-(1-(4-((1R,2S)-6-hydroxy-2-phenyl-1,2,3,4-tetrahydronaphthalen-1-yl)phenyl)piperidine-4-carbonyl)azetidin-3-yl)-6,7-dihydropyrrolo[3,4-f]isoindole-1,3(2H,5H)-dione]
- DC50 [1]: 10 to 100 nM

Compound: O=C1CCC(N2C(=O)c3cc4c(cc3C2=O)CN(CC2CN(C(=O)C3CCN(c5ccc([C@@H]6c7ccc(O)cc7CC[C@@H]6c6ccccc6)cc5)CC3)C2)C4)C(=O)N1 (mixture of isomers) [Compound B10, 2-(2,6-dioxopiperidin-3-yl)-6-((1-(1-(4-((1R,2S)-6-hydroxy-2-phenyl-1,2,3,4-tetrahydronaphthalen-1-yl)phenyl)piperidine-4-carbonyl)azetidin-3-yl)methyl)-6,7-dihydropyrrolo[3,4-f]isoindole-1,3(2H,5H)-dione]
- DC50 [1]: 10 to 100 nM

Compound: O=C1CC[C@H](N2Cc3cc4c(cc3C2=O)OCC42CCN(C[C@@H]3COC4(CCN(c5ccc([C@@H]6c7ccc(O)cc7CC[C@@H]6c6ccccc6)cc5)CC4)C3)CC2)C(=O)N1 [Compound A26, (3S)-3-(1′-((8-(4-((1R,2S)-6-hydroxy-2-phenyl-1,2,3,4-tetrahydronaphthalen-1-yl)-phenyl)-1-oxa-8-azaspiro[4.5]decan-3-yl)methyl)-7-oxo-5,7-dihydro-2H,6H-spiro[furo[2,3-f]isoindole-3,4′-piperidin]-6-yl)piperidine-2,6-dione]
- DC50 ([2]; 16 hrs treatment): 10 to 100 nM
- T47D Dmax ([2]; maximal ER degradation, 16 hrs treatment): C (“C”: 25-50%)
- DC50 ([3]; 16 hrs treatment): 10 to 100 nM
- MCF7 Dmax ([3]; MCF-7, maximal ER degradation, 16 hrs treatment): C (“C”: 25-50%)

Compound: COc1cc(N2CCC(CN3CCC4(CC3)COc3cc5c(cc34)CN([C@H]3CCC(=O)NC3=O)C5=O)CC2)ccc1[C@H]1c2ccc(O)cc2CC[C@H]1c1ccccc1 [Compound A38, (R)-3-(1′-((1-(4-((1S,2S)-6-hydroxy-2-phenyl-1,2,3,4-tetrahydronaphthalen-1-yl)-3-methoxyphenyl)piperidin-4-yl)methyl)-7-oxo-5,7-dihydro-2H,6H-spiro[furo[2,3-f]iso-indole-3,4′-piperidin]-6-yl)-piperidine-2,6-dione formate]
- DC50 ([2]; 16 hrs treatment): 1 to 10 nM
- Dmax [2]: 25 to 50%
- Dmax [3]: 25 to 50%
- DC50 ([3]; 16 hrs treatment): 10 to 100 nM

Compound: COc1cc(N2CCC(CN3CCC4(CC3)COc3cc5c(cc34)CN([C@H]3CCC(=O)NC3=O)C5=O)CC2)c(F)cc1[C@@H]1c2ccc(O)cc2CC[C@@H]1c1ccccc1 [Compound A122, (S)-3-(1′-((1-(2-fluoro-4-((1S,2S)-6-hydroxy-2-phenyl-1,2,3,4-tetrahydronaphthalen-1-yl)-5-methoxyphenyl)piperidin-4-yl)methyl)-7-oxo-5,7-dihydro-2H,6H-spiro[furo[2,3-f]isoindole-3,4′-piperidin]-6-yl)piperidine-2,6-dione]
- DC50 ([2]; 16 hrs treatment): < 1 nM
- Dmax [2]: 50 to 75%
- Dmax [3]: 50 to 75%
- DC50 ([3]; 16 hrs treatment): < 1 nM
